“Also recorded” adds a separate entry of the source. Each block holds one compound with its values, some of them ahead of it.
Key:
[1] = test system: CaBP22^−333::GUS expression; experiment: CaBP22-333::GUS reporter assay, liquid-grown seedlings (saturation treatment); type: in vivo, Arabidopsis thaliana
Description: (§1) B. Trypan blue staining of CaBP22^−333 : :GUS seedlings incubated for 24 h in medium containing compounds at the indicated concentrations.
(§2) To quantify the bioactivity of HTC, we performed various assays with one week-old CaBP22^−333::GUS seedlings submerged in liquid growth medium containing HTC or mock-solution (saturation treatment). […] To examine if HTC induces phytotoxicity, we stained Col-0 seedlings after saturation treatment with trypan blue.
(§3) To determine which substituents or moieties of the HTC molecule are critical for its defense-inducing activity, seven commercially available HTC analogs were analyzed (FIG. 3A). We compared the ability of these compounds to induce GUS expression in saturation treated CaBP22^−333::GUS Arabidopsis seedlings to that of DCA and HTC. […] We also used trypan blue staining to examine HTC-analog-induced phytotoxicity.

[2] = test system: Peronospora isolate Noco2; experiment: Noco2 spore inhibition assay in soil-grown seedlings; type: in vivo, Hyaloperonospora arabidopsidis; details: for level of protection / defense-inducing activity against Noco2 / concentration giving significant protection against Noco2: dose-response; for level of protection / defense-inducing activity against Noco2: three-week old Col-0 (FIG. 3B); for concentration giving significant protection against Noco2: three-week old Col-0, infected 24 h after treatment, 7 dpi (FIG. 3B); for resistance to Noco2: 100 μM sprayed 1 h prior to pathogen challenge; for suppression of Noco2 spore formation / resistance to Noco2: 7 dpi; for HTC-triggered immunity to Noco2: 100 μM
Description: FIG. 2. Kinetic analysis of chemically-induced disease resistance. Experiments were conducted with three-week-old soil-grown Col-0 seedlings sprayed with 100 μM HTC, DCA, INA, or mock solution (1% DMSO) at the indicated times prior to being sprayed with 2×10^4 mL^−1Noco2 spores (2 ml per pot). Peronospora (Hyeloperonospora arabidopsidis) spores were counted 7 dpi (days post-infection). Mean and SE values were calculated from a minimum of three biological replicates and the average of those is shown above.
FIG. 3. Structure-activity analysis of HTC analogs. A. Chemical structures of DCA, HTC and tested HTC analogs. Chiral centers of the HTC skeleton are indicated by “1*” and “2*” in HTC. B. Noco2 spore inhibition assay. Three-week-old soil-grown Col-0 seedlings were spray-infected 24 h after treating with varying concentrations of each synthetic elicitor and then assayed at 7 dpi for spore growth. 100% inhibition=0 spores. […] The average of those three replicates is shown. Significant differences of compound-treated compared to mock-treated seedlings determined by Student's t-tests (p<0.05) are marked by colored four pointed stars.
(§4) FIG. 4. Analysis of HTC activity in defense mutant plants. A & B. RT-PCR analysis of CaBP22 transcript levels in Col-0 (wild-type) and mutant backgrounds 24 h after spraying 2-week-old seedlings with mock-solution (1% DMSO), 100 μM DCA, or HTC. RT-PCRs with ACTIN are shown as loading controls. […] C. Analysis of HTC activity in Col-0 or nahG background. Experiments were conducted with three-week-old soil-grown Col-0 or nahG seedlings sprayed with 100 μM HTC, 100 μM DCA, or mock-solution (1% DMSO) 24 h prior to infection with 2×10^4 virulent Noco2 spores ml^−1 (2 ml per pot). Spores were counted at 7 dpi. Mean and SE values were calculated from a minimum of three biological replicates and their averages of are shown.
We next tested whether HTC could induce pathogen resistance in soil-grown plants. […] To determine if HTC differs from other synthetic elicitors in the kinetics of defense induction, Col-0 seedlings were sprayed with 100 μM of INA, DCA, HTC, or mock, 1 h, 3 h, 1 d, 3 d, or 6 d prior to pathogen challenge.
We performed a dose-response analysis of inhibition of Noco2 spore development in three-week old Col-0 plants using the HTC analogs (FIG. 3B).
We also compared the biological activity of s-HTC to that of p-HTC by spraying a concentration gradient of both preparations on soil-grown Col-0 seedlings 24 h prior to challenge with Noco2.

[3] = test system: Pseudomonas syringae; details: Arabidopsis; cited from earlier work
[4] = test system: Col-0 seedlings; experiment: Trypan blue staining for phytotoxicity (cell death) after saturation treatment; type: in vivo, Arabidopsis thaliana; details: for seedlings with cell death (trypan blue staining): treated for 24 h at 300 μM
Description: as §1, §2, §3

[5] = test system: Hyaloperonospora arabidopsidis (Peronospora); details: Arabidopsis; cited from earlier work
[6] = test system: CaBP22 transcript levels; experiment: RT-PCR analysis of CaBP22 transcript levels in Col-0 and defense mutants; type: in vivo, Arabidopsis thaliana; details: for ability to induce CaBP22 expression: transgenic nahG line; for ability to induce CaBP22 expression / CaBP22 transcript accumulation: 100 μM
Description: as §4
To establish the mode-of-action of HTC, we performed reverse transcription (RT)-PCRs examining transcript levels of the defense marker gene CaBP22 in Col-0 and a set of mutant lines representing various defense signaling mechanisms. […] In the transgenic nahG line, which is compromised in the accumulation of salicylic acid (SA), the ability of HTC to induce CaBP22 expression was blocked, while that of DCA was not affected (FIGS. 4A and B).

[7] = test system: Arabidopsis roots; experiment: Root length of Col-0 seedlings on 1/2 MS plates containing synthetic elicitor; type: in vivo, Arabidopsis thaliana; details: for enhancement of root length / root growth: HTC at 1 μM only, DCA and INA at various tested concentrations; for root growth at higher concentrations: higher doses, range tested 1 to 100 μM
Description: FIG. 5. Relative root length of Col-0 plants grown on synthetic elicitors. Col-0 seedlings were plated in square petri dishes on ½ MS medium containing 1, 10, 25, 50, 75 or 100 μM of HTC, DCA, INA, or the respective controls (solvent only). A. Roots of Col-0 seedlings grown on 1 uM HTC or control (0.01% DMSO) medium 14 days after germination. B. Average percent Col-0 root length grown on synthetic elicitors compared to Col-0 grown on control. Root length was measured at day 3, 5, 7, 11, and 14. Results are expressed as percentages of the average root length on the respective synthetic elicitor treatments compared to their controls. The average, standard error, and Student's t-test (p<0.05) were calculated from these values. Significant differences between synthetic elicitor-treated and control-treated plants are marked by a star above the corresponding data point. Y-axis represents relative root growth in the presence of synthetic elicitor. CSE: concentration of synthetic elicitor; dpg: days post germination.
We compared the ability of other synthetic elicitors to enhance growth, and performed root growth assays with INA, DCA, and HTC (FIG. 5B). Each synthetic elicitor was added to the solid media plates at concentrations ranging from 1 to 100 μM. The plates were placed upright in a growth chamber, and root lengths were measured at 3 d-intervals. To merge data sets, root length was expressed as a percentage of their value relative to the average of the mock (control) for that data set. Normalizing each root length to its control allowed all replicates to be combined together to calculate averages, standard errors, and perform statistical tests (FIG. 5B).

[8] = test system: Col-0 seedlings; experiment: Fresh weight of aerial portions of soil-drenched Col-0 seedlings; type: in vivo, Arabidopsis thaliana; details: 1-100 μM soil drench, day 14
Description: FIG. 6. Relative weight of aerial portions of synthetic elicitor treated Col-0 seedlings compared to control (DMSO) treated seedlings. Col-0 seeds (15-20 seeds per pot) were sown on soil drenched with 20 mL of the indicated concentrations of HTC, INA, DCA, or the respective mock solutions. Fresh weight (FW) of the above-ground plant tissues was measured at day 14. Results are expressed as percentages of the average FW of the respective synthetic elicitor treated plants compared to that of mock-treated controls. The standard error and Student's t-test (p<0.05) were calculated from at least three biological replicates and averages are shown. Significant differences between synthetic elicitor-treated and control-treated plants are marked by a star above the corresponding data point. Y-axis represents percent of FW in the presence of synthetic elicitor compared to controls.
To determine whether the synthetic […] could increase the aerial weight of Arabidopsis, soil-sown-seedlings were drenched with synthetic elicitor in water at day 0 (FIG. 6). After 14 days, aerial portions of plants were cut off and their fresh weight measured. […] HTC thus has a hormesis-like effect in Arabidopsis roots, but generally increases the aerial fresh weight of Arabidopsis at the concentrations tested.

[9] = test system: Tomato cv. Moneymaker seedlings; experiment: Root drench assay, aerial fresh weight of soil-grown tomato; type: in vivo, Solanum lycopersicum; details: 10 μM single soil drench, day 14
Description: (§5) FIG. 7. Relative root length and FW of tomato seedlings and shoots. Tomato cv. Moneymaker seedlings treated with HTC compared to seedlings treated with control (DMSO 0.01%). A. Moneymaker seedlings were plated in square petri dishes on ½ MS medium containing HTC. Root length was measured at day 2, 4, 6, and 8. Results are expressed as percentages of the average root length on 1 μM HTC or control. The average, standard error, and Student's t-test (p<0.05) were calculated from these values. Each time point represents at least 89 distinct root length measurements from at least three biological replicates. Y-axis represents percent of root growth in the presence of synthetic elicitor compared to controls. B. Moneymaker seeds (five seeds per pot with a minimum of 21 pots) were sown on soil drenched with 20 ml of the indicated concentrations of HTC or their respective control. Fresh weight (FW) of the above-ground plant tissues was measured at day 14. Results are expressed as percentages of the average weight of HTC treatments compared to those of the controls. The standard error and Student's t-test (p<0.01) were calculated from at least three biological replicates and the average is shown above. Significant differences between synthetic elicitor-treated and control-treated plants are marked by stars above the corresponding data points. […]

[10] = test system: Tomato cv. Moneymaker seedlings; experiment: Root length of plate-grown tomato seedlings; type: in vivo, Solanum lycopersicum; details: 1 μM
Description: as §5

[11] = Col-0, 24 h after spraying 100 μM
[12] = wrky70-3 mutant, 24 h after spraying 100 μM
[13] = Col-0, 100 μM sprayed 24 h prior to infection
[14] = nahG, 100 μM sprayed 24 h prior to infection

Structure (SMILES): O=C(O)C1CSC(c2ccccc2O)N1 (stereo not drawn) [CMP140, 2-(2-hydroxy-phenyl)-thiazolidine-4-carboxilic acid]
efficiency of GUS induction among HTC analogs [1]: most efficient HTC analog
level of protection / defense-inducing activity against Noco2 [2]: less efficient defense inducer compared to HTC
concentration giving significant protection against Noco2 [2]: at least 100 uM

Structure (SMILES): Nc1c(Cl)cc(Cl)cc1C(=O)O [DCA, 3-5-dicholoroanthranlilic acid, reference compound]
disease resistance [3]: fast, strong and transient disease resistance
seedlings with cell death (trypan blue staining) [4]: 100%
disease resistance [5]: fast, strong and transient disease resistance
CaBP22 transcript levels [6, 11]: induced an increase
ability to induce CaBP22 expression [6]: not affected
CaBP22 transcript levels [6, 12]: not
enhancement of root length / root growth [7]: enhanced Arabidopsis root growth
root growth at higher concentrations [7]: strongly inhibited
resistance to Noco2 [2]: full resistance
suppression of Noco2 spore formation / resistance to Noco2 [2, 13]: induced resistance; also recorded: significantly suppresses
level of protection / defense-inducing activity against Noco2 [2]: highest protection
concentration giving significant protection against Noco2 [2]: 10 µM
suppression of Noco2 spore formation / resistance to Noco2 [2, 14]: induced resistance; also recorded: significantly suppresses

reduction of length of roots ([7]; concentrations above 50 μM): ~80%
Structure (SMILES): O=C(O)C1CSC(c2cc(Br)ccc2O)N1 (stereo not drawn) [HTC, 2-(5-bromo-2-hydroxy-phenyl)-thiazolidine-4-carboxylic acid]
concentration activating CaBP22-333::GUS expression (as low as) ([1]; within 24 h, one week-old seedlings): 1 µM
cell death (trypan blue staining) ([4]; lower concentrations that resulted in reporter activation (1-100 μM)): No cell death
seedlings with cell death (trypan blue staining) [4]: 100%
fresh weight of shoots relative to mock-treated plants [8]: ~120%
fresh weight of shoots relative to mock-treated plants [9]: 128.5%
CaBP22 transcript levels [6, 11]: induced an increase
CaBP22 transcript accumulation ([6]; pad4-1 mutant): reduced
CaBP22 transcript accumulation ([6]; sid2-2 mutant): reduced
ability to induce CaBP22 expression [6]: blocked
CaBP22 transcript levels [6, 12]: not
CaBP22 transcript accumulation ([6]; wrky72-2 mutant): full HTC-induced CaBP22 transcript accumulation
change in root length ([10]; all analyzed time-points): significant increase in root length
root length relative to mock-treated plants ([10]; day 6): 136.1%
root length relative to control plates ([7]; 1 μM): up to 180%
enhancement of root length / root growth [7]: enhanced the root length
root growth at higher concentrations [7]: reduced root growth; also recorded: strongly inhibited
HTC-triggered immunity to Noco2 ([2]; 6 dpt): not detectable
HTC-triggered immunity to Noco2 ([2]; 3 days post treatment (dpt)): reduced
efficacy of s-HTC versus p-HTC in reducing Noco2 spore counts ([2]; 20, 50, 100, and 200 μM sprayed on Col-0 24 h prior to challenge): No significant difference
suppression of Noco2 spore formation / resistance to Noco2 [2, 13]: able to do so; also recorded: significantly suppresses
concentration giving significantly reduced numbers of Noco2 spores (as low as) ([2]; Col-0 sprayed prior to infection, spores 7 dpi): 10 µM
level of protection / defense-inducing activity against Noco2 [2]: highest protection; also recorded: most potent of the tested analogs
concentration giving significant protection against Noco2 [2]: 10 µM
suppression of Noco2 spore formation / resistance to Noco2 [2, 14]: did not observe significant reduction and not

Structure (SMILES): O=C(O)c1cc(Cl)nc(Cl)c1 [INA, reference compound]
enhancement of root length / root growth [7]: enhanced Arabidopsis root growth
root growth at higher concentrations [7]: not
resistance to Noco2 [2]: full resistance

Structure (SMILES): O=C(O)C1CSCN1 (stereo not drawn) [T4CA, 4-carboxy-4-thiazolidinyl, reference compound]
level of protection / defense-inducing activity against Noco2 [2]: did not result in significant immunity
